Columns and labels:
THRβ [1] = biological target: T1, THRβ (Homo sapiens, UniProt P10828); assay: Reporter gene (GAL4-THRβ-LBD / Dual-Glo luciferase) agonist activity assay in HEK293T cells; assay type: cell-based; details: ratio of reporter gene EC50 values THRα/THRβ
T1 construct: expressed in transfected cells; host or cells: HEK293T
T1 sequence (P10828 217-461): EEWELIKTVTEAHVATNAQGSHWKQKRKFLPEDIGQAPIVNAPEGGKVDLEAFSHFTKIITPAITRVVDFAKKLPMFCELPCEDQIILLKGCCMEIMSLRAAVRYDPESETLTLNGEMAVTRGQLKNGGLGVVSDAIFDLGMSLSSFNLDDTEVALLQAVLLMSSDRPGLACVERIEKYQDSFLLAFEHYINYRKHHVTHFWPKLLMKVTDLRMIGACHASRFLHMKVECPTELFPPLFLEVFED
From the text: Experimental Example 1: Detection of THRα and THRβ Agonist Activities of Compounds Based on Reporter Gene Activity Assay Method
1.1 Construction and Preparation of Plasmids pGAL4-THR-LBD and pG5-Luc
The pGAL4-THRα-LBD and pGAL4-THRβ-LBD plasmids used in the reporter gene assay system were constructed by a conventional molecular cloning method comprising the following main steps: the cDNA sequences of THRα (NM_003250) and THRβ (NM_000461) corresponding to the amino acid sequences of THRα (163-407AA) and THRβ (217-461AA) were inserted into the BamHI and NotI enzyme digestion sites of the pGAL4 vector by the PCR technique respectively to obtain the pGAL4-THRα-LBD and pGAL4-THRβ-LBD plasmids; the pG5-Luc (#E249A) and pRL-TK (#E2241) plasmids were purchased from Promega; the plasmids were transfected into the E. coli DH5α by the CaCl2 method, and after further culture and amplification, the plasmids were purified by Plasmid Extraction Kits (TIANGEN, #D107) to obtain the corresponding plasmid DNAs.
1.2 Co-Transfection of Plasmids into HEK293T Cells and Treatment with Compounds
The HEK293T cells were inoculated into a 96-well plate at a density of 1×10^4/well the day before plasmid transfection. Cell transfection was conducted according to the instructions of the transfection reagent FuGENE® HD (Promega, #E2311). The main steps were as follows: taking one well as an example here, the plasmids pGAL4-THRα-LBD or pGAL4-THRβ-LBD, pG5-Luc, and pRL-TK were added in the proportions of 20 ng, 50 ng, and 5 ng to 10 μL of Opti-MEM™ I medium (Gibco, #11058021) and mixed well; subsequently, 0.25 uL of FuGENE® HD was added, mixed well, and then left at room temperature for 5 min; afterwards, 10 μL of the mixture was added to the cell wells containing 100 μL of culture medium. After cell co-transfection for 6 h, the compound was diluted in a 3-fold gradient with dimethyl sulfoxide at the highest concentration of 1 uM. The compound was added to the cell culture medium at a total of 10 concentrations for treatment for 24 h. There were a total of two duplicate wells for each concentration. Triiodothyronine (T3) was used as the positive control.
1.3 Dual-Glo Luciferase Assay
After the cells were treated with the compound for 24 h, the cells were assayed according to the instructions of Dual-Glo® Luciferase Assay System (Promega, #E2940). The main steps were as follows: 50 μL of culture medium was aspirated from each well and discarded, and then 50 μL of Dual-Glo® Luciferase reagent was added and oscillated at room temperature for 10 min; 80 μL of lysis reaction solution was measured into a white opaque optiPlate-96-well plate, and the luminescence signal value (Firefly-Luc) of the Firefly luciferase was detected using an MD i3x multi-mode microplate reader; 40 μL of Dual-Glo® Stop & Glo® reagent was then added, and oscillated at room temperature for 10 min; the luminescence signal value (Renilla-Luc) of the Renilla luciferase was then detected using an MD i3x multi-mode microplate reader. The Firefly-Luc/Renilla-Luc ratio was used as the activation activity of the compound against THR, and the ratio in the solvent DMSO group was used for normalization; the dose-response curve was fitted with four parameters using the GraphPad Prism6.0 software, and the EC50 value was calculated.

THRβ [2] = biological target: T2, THRβ (Homo sapiens, UniProt P10828); assay: Time-resolved FRET (THR-FRET) agonist activity assay, GST-tagged THRβ LBD with SRC2 polypeptide; assay type: biochemical; details: ratio of THR-FRET EC50 values THRα/THRβ
T2 construct: made in house; host or cells: E. coli BL21 (DE3)
T2 sequence (P10828 217-461 limits assumed): T1 sequence (P10828 217-461)
From the text: Experimental Example 2: Detection of Agonist Activities of Compounds Against THRα/β Based on Time-Resolved Fluorescence Resonance Energy Transfer (THR-FRET)
By visiting NCBI, the THRα/β LBD domain sequences were found. The pET21-His-GST-dLBT-THRα LBD and pET21-His-GST-dLBT-THRβ LBD overexpression vectors were constructed by the fusion method, and sequenced to confirm the accuracy of the sequences.
The correctly sequenced THRα LBD and THRβ LBD overexpression vectors were transfected into E. coli cells BL21 (DE3), and spread on an agar plate with ampicillin. Monoclones were picked out and amplified in an LB medium, and transferred into 1 L LB at a ratio of 1:100 for large-scale culture. When the OD value was at 0.8 to 1.2, 0.5 mM isopropyl-beta-D-thiogalactopyranoside (IPTG) was added, and induced overnight at 18° C. The bacteria were harvested, disrupted, and purified via the GST column and the molecular sieve to obtain two proteins His-GST-dLBT-THRα LBD and His-GST-dLBT-THRβ LBD.
The proteins were taken out from a refrigerator at −80° C. The proteins with the GST-tagged THRα/β LBD domain and the Eu-labelled GST antibodies were thawed slowly on ice, and an assay buffer containing a final concentration of 5 mM dithiothreitol (DTT) was formulated.
The starting concentration of the compound was 100 μM (in DMSO). The compound (100 μM in DMSO) was subjected to 3-fold isogradient dilution with DMSO to obtain a total of 11 isogradient concentrations. Subsequently, the above compounds at the isogradient concentration were further subjected to 50-fold dilution with an assay buffer containing 5 mM DTT.
The final concentrations of all components were calculated based on a system with a final volume of 20 μL per well. To 18 μL of assay buffer containing 5 mM DTT, the GST-tagged THRα/β proteins, the SRC2 ([…]) polypeptide, XL665 (Cisobio, #610SAXLB), and the Eu-labeled GST antibody were added, and the final concentrations were 2 nM, 200 nM, 0.05 nM, and 7.6 nM respectively to formulate 18 μL of reaction mixture of the proteins, polypeptide, and antibody per well.
18 μL of reaction mixture and 2 μL of diluted compound were added into an optiplate-384-well plate, and reacted at room temperature for 24 h.
The plate was read using an MD i3X multi-mode microplate reader with the excitation and emission wavelengths of 340 nm and 665 nm, respectively. The intensity of light at a wavelength of 616 nm generated by europium excited by 340 nm wavelength light from the MD i3X multi-mode microplate reader was used as the background. According to the different activation degrees of different compounds against THRα and THRβ, the intensity of the emission light at a wavelength of 665 nm generated by exciting XL665 with the exciting light at a wavelength of 616 nm was varied. The intensity ratio between these two light wavelengths (665 nm, 616 nm) was used as the activation activity of the compound against THRα or THRβ, and the ratio in the solvent DMSO group was used for normalization. The dose-response curve was fitted with four parameters using the GraphPad Prism 6.0 software, and the EC50 value was calculated.

Compound | Selectivity (THRα/THRβ) (THRβ [1]) | Selectivity (THRα/THRβ) (THRβ [2])
[2H]C([2H])(Oc1ccccc1C(=O)NC)c1c(Br)cc(-n2nc(C(F)F)c(=O)[nH]c2=O)cc1Br [Compound 108] | † (†: 5 ≥ THRα/β;) | †† (††: 10 ≥ THRα/β;)
[2H]C([2H])([2H])NC(=O)c1ccccc1OCc1c(Br)cc(-n2nc(C(F)F)c(=O)[nH]c2=O)cc1Br [Compound 109] | † (†: 5 ≥ THRα/β;) | †† (††: 10 ≥ THRα/β;)
[2H]C(Oc1ccccc1C(=O)NC([2H])([2H])[2H])c1c(Br)cc(-n2nc(C(F)F)c(=O)[nH]c2=O)cc1Br (stereo not drawn) [Compound 110] | † (†: 5 ≥ THRα/β;) | †† (††: 10 ≥ THRα/β;)
[2H]C(Oc1ccccc1C(=O)NC)c1c(Br)cc(-n2nc(C([2H])(F)F)c(=O)[nH]c2=O)cc1Br (stereo not drawn) [Compound 111] | † (†: 5 ≥ THRα/β;) | †† (††: 10 ≥ THRα/β;)

The next lines start with the values.

Selectivity (THRα/THRβ) (THRβ [1]) | Selectivity (THRα/THRβ) (THRβ [2]) | Compound
† (†: 5 ≥ THRα/β;) | †† (††: 10 ≥ THRα/β;) | [2H]C([2H])([2H])NC(=O)c1ccccc1OCc1c(Br)cc(-n2nc(C([2H])(F)F)c(=O)[nH]c2=O)cc1Br [Compound 112]
† (†: 5 ≥ THRα/β;) | †† (††: 10 ≥ THRα/β;) | [2H]C(Oc1ccccc1C(=O)NC([2H])([2H])[2H])c1c(Br)cc(-n2nc(C([2H])(F)F)c(=O)[nH]c2=O)cc1Br (stereo not drawn) [Compound 113]

— patent US20260048060A1, “POLYCYCLIC THYROID HORMONE b RECEPTOR AGONIST AND USE THEREOF” (CASCADE PHARMACEUTICALS, INC., priority 2022, published 2026)
